Test results published in patent US6589984B1, “Benzofurylpyrone derivatives” (Teijin Limited, priority 1998, dated 2003).

Test system: Human hepatic cancer cells HepG2
Assay: TG production inhibiting activity (14C-acetic acid incorporation into TG) in HepG2 cells
Type: cell-based
Conditions: Homo sapiens, HepG2, group criterion
Method: Human hepatic cancer cells HepG2 were inoculated into a 24-well plate (Costar No. 3524) at 4×10^4 cells/well, and 1 ml of medium (eRDF medium containing 10% bovine serum (Kyokuto Chemical Co.)) was used for 6 day culturing with 5% CO2 at 37° C. After drawing off the supernatant medium, the cells were freshly rinsed with 1 ml of PBS(−) buffer solution (Takara Shuzo) and drawn off. This procedure was repeated twice and then 1 ml of fresh medium (eRDF medium) was added.
6-(benzofuran-2-yl)-3,5-dimethyl-4-hydroxy-2H-pyran-2-one (Example 2) was dissolved in dimethylsulfoxide (DMSO) to prepare a 20 mM sample stock solution. A diluted solution was obtained by diluting the sample solution with DMSO.
To the cells prepared above there were added the sample stock solution or its diluted solution at 5 μl per well and 10 μl of ^14C-acetic acid solution (a solution of Amersham Code No. CFA13 diluted 4.4-fold with PBS(−) buffer), and culturing was carried out for one day with 5% CO2 at 37° C.
After the culturing was completed, the culture solution was removed, and 1 ml of extraction solution (a mixture of n-hexane and isopropyl alcohol at 2:1) was added for extraction treatment on the lipid components in the cells. After the treatment, the extract containing the obtained lipid components was air-dried, the residue was redissolved in 20 μl of a mixed solution of n-hexane and ethyl acetate at 9:1, and the solution was spotted on a thin-layer chromatography plate (S319, Tokyo Kasei) and developed by thin-layer chromatography with the mixed solution mentioned above. After air-drying, the lipid components were colored with iodine vapor, the portion corresponding to TG was cut out, and the amount of TG biosynthesized was measured with a liquid scintillation counter.

[1] = alternatives: IC50 less than 10 μM, or at least 30% inhibition at 1 μM, or at least 50% inhibition at 10 μM
[2] = alternatives: IC50 at least 10 μM and less than 100 μM, or at least 5% and less than 30% inhibition at 1 μM, or at least 30% and less than 50% inhibition at 10 μM

Compound	IC50 [1]	IC50 [2]
Cc1c(-c2cc3cc(OCc4nccs4)ccc3o2)oc(=O)c(C)c1O [Example 60, 4-hydroxy-3,5-dimethyl-6-(5-(2-thiazolylmethoxy)benzofuran-2-yl)-2H-pyran-2-one]		10 to 100 µM
Cc1c(-c2cc3ccccc3o2)oc(=O)c(C)c1OC(=O)c1cccnc1 [Example 63, 6-(benzofuran-2-yl)-3,5-dimethyl-4-nicotinoyloxy-2H-pyran-2-one]	< 10 µM	
CC(=O)Oc1c(C)c(-c2cc3cc(Br)ccc3o2)oc(=O)c1C [Example 65, 4-acetyloxy-6-(5-bromobenzofuran-2-yl)-3,5-dimethyl-2H-pyran-2-one]	< 10 µM	
Cc1c(O)c(Oc2ccccc2)c(-c2cc3ccccc3o2)oc1=O [Example 67, 6-(benzofuran-2-yl)-4-hydroxy-3-methyl-5-phenoxy-2H-pyran-2-one]		10 to 100 µM
Cc1c(-c2cc3ccccc3o2)oc(=O)c(C)c1C(=O)OC1CCC(=O)N1 (centres unmarked) [Example 70, 6-(benzofuran-2-yl)-3,5-dimethyl-4-(2-pyrrolidon-5-ylcarboxy)-2H-pyran-2-one]	< 10 µM	
Cc1c(-c2cc3ccccc3o2)oc(=O)c(C)c1OC(=O)CNC(=O)OC(C)(C)C [Example 71, 6-(benzofuran-2-yl)-4-(2-(t-butoxycarbonylamino)acetyloxy)-3,5-dimethyl-2H-pyran-2-one]	< 10 µM	
Cc1c(-c2cc3ccccc3o2)oc(=O)c(C)c1OC(=O)c1cccc(N(C)C)c1 [Example 75, 6-(benzofuran-2-yl)-3,5-dimethyl-4-(3-dimethylaminobenzoyloxy)-2H-pyran-2-one]	< 10 µM	
CC(=O)Nc1ccc(C(=O)Oc2c(C)c(-c3cc4ccccc4o3)oc(=O)c2C)cc1 [Example 76, 4-(4-(acetylamino)benzoyloxy)-6-(benzofuran-2-yl)-3,5-dimethyl-2H-pyran-2-one]	< 10 µM	

The remaining lines, values ahead:

IC50 [1]	IC50 [2]	Compound
< 10 µM		CC(=O)Oc1c(C)c(-c2cc3cc(OCc4nccs4)ccc3o2)oc(=O)c1C [Example 59, 4-acetyloxy-3,5-dimethyl-6-(5-(2-thiazolylmethoxy)benzofuran-2-yl)-2H-pyran-2-one]
< 10 µM		Cc1c(-c2cc3ccccc3o2)oc(=O)c(C)c1OC(=O)CCc1ccccc1 [Example 61, 6-(benzofuran-2-yl)-3,5-dimethyl-4-(3-phenylpropionyloxy)-2H-pyran-2-one]
< 10 µM		Cc1c(-c2cc3ccccc3o2)oc(=O)c(C)c1OC(=O)c1ccco1 [Example 62, 6-(benzofuran-2-yl)-3,5-dimethyl-4-(2-furoyloxy)-2H-pyran-2-one]
< 10 µM		CC(=O)NC(CC(=O)N1CCOCC1)C(=O)Oc1c(C)c(-c2cc3ccccc3o2)oc(=O)c1C (centres unmarked) [Example 64, 6-(benzofuran-2-yl)-3,5-dimethyl-4-(2-acetylamino-4-(morpholin-4-yl)-4-oxobutyryloxy)-2H-pyran-2-one]
< 10 µM		Cc1c(O)c(CC2CCCC2)c(-c2cc3ccccc3o2)oc1=O [Example 66, 6-(benzofuran-2-yl)-5-cyclopentylmethyl-4-hydroxy-3-methyl-2H-pyran-2-one]
	10 to 100 µM	CC=CCc1c(-c2cc3ccccc3o2)oc(=O)c(C)c1O [Example 68, 6-(benzofuran-2-yl)-5-(2-butenyl)-4-hydroxy-3-methyl-2H-pyran-2-one]
< 10 µM		COc1ccc(C(=O)Oc2c(C)c(-c3cc4ccccc4o3)oc(=O)c2C)c(OC)c1 [Example 72, 6-(benzofuran-2-yl)-4-(2,4-dimethoxybenzoyloxy)-3,5-dimethyl-2H-pyran-2-one]
	10 to 100 µM	Cc1c(-c2cc3ccccc3o2)oc(=O)c(C)c1OC(=O)c1ccc(O)nc1 [Example 74, 6-(benzofuran-2-yl)-3,5-dimethyl-4-(6-hydroxynicotinoyloxy)-2H-pyran-2-one]
< 10 µM		Cc1c(-c2cc3cc(OCc4ccccc4F)ccc3o2)oc(=O)c(C)c1O [Example 78, 3,5-dimethyl-6-(5-(2-fluorobenzyloxy)benzofuran-2-yl)-4-hydroxy-2H-pyran-2-one]
